From the NIST ThermoML archive (doi:10.1007/s10765-005-5570-x)

Assay: xn = mol fraction of the nth substance listed
Conditions: Liquid

BrCBr [dibromomethane] + CCOC(C)=O
Conditions | mass density [kg/m3]
288.15 K, 101.33 kPa, x1 = 0.0522 | 966.58
288.15 K, 101.33 kPa, x1 = 0.2014 | 1147.77
288.15 K, 101.33 kPa, x1 = 0.3006 | 1277.79
288.15 K, 101.33 kPa, x1 = 0.4028 | 1419.89
288.15 K, 101.33 kPa, x1 = 0.4852 | 1542.09
288.15 K, 101.33 kPa, x1 = 0.6012 | 1725.96
288.15 K, 101.33 kPa, x1 = 0.7001 | 1895.61
288.15 K, 101.33 kPa, x1 = 0.8077 | 2095.3
288.15 K, 101.33 kPa, x1 = 0.8997 | 2281.45
288.15 K, 101.33 kPa, x1 = 1 | 2501.88
298.15 K, 101.33 kPa, x1 = 0.0522 | 954.36
298.15 K, 101.33 kPa, x1 = 0.2014 | 1133.83
298.15 K, 101.33 kPa, x1 = 0.3006 | 1262.61
298.15 K, 101.33 kPa, x1 = 0.4028 | 1404.06
298.15 K, 101.33 kPa, x1 = 0.4852 | 1525
298.15 K, 101.33 kPa, x1 = 0.6012 | 1707.9
298.15 K, 101.33 kPa, x1 = 0.7001 | 1876.1
298.15 K, 101.33 kPa, x1 = 0.8077 | 2074.59
298.15 K, 101.33 kPa, x1 = 0.8997 | 2259.57
298.15 K, 101.33 kPa, x1 = 1 | 2478.37
298.15 K, 200 kPa, x1 = 0.2995 | 1260.2
298.15 K, 200 kPa, x1 = 0.5013 | 1549.45
298.15 K, 200 kPa, x1 = 0.6994 | 1874.05
298.15 K, 500 kPa, x1 = 0.2995 | 1260.63
298.15 K, 600 kPa, x1 = 0.5013 | 1550.03
298.15 K, 600 kPa, x1 = 0.6994 | 1874.73
298.15 K, 1100 kPa, x1 = 0.2995 | 1261.34
298.15 K, 1100 kPa, x1 = 0.5013 | 1550.84
298.15 K, 1200 kPa, x1 = 0.6994 | 1875.51
298.15 K, 1900 kPa, x1 = 0.5013 | 1551.83
298.15 K, 2100 kPa, x1 = 0.2995 | 1262.47
298.15 K, 2200 kPa, x1 = 0.6994 | 1876.85
298.15 K, 2900 kPa, x1 = 0.2995 | 1263.67
298.15 K, 2900 kPa, x1 = 0.5013 | 1553.29
298.15 K, 2900 kPa, x1 = 0.6994 | 1878.02
298.15 K, 3700 kPa, x1 = 0.2995 | 1264.58
298.15 K, 3900 kPa, x1 = 0.5013 | 1554.65
298.15 K, 4200 kPa, x1 = 0.6994 | 1879.75
298.15 K, 4700 kPa, x1 = 0.5013 | 1555.68
298.15 K, 4800 kPa, x1 = 0.2995 | 1265.79
298.15 K, 5200 kPa, x1 = 0.6994 | 1881.21
298.15 K, 5900 kPa, x1 = 0.2995 | 1267.24
298.15 K, 6000 kPa, x1 = 0.5013 | 1557.43
298.15 K, 6000 kPa, x1 = 0.6994 | 1882.25
298.15 K, 6700 kPa, x1 = 0.5013 | 1558.4
298.15 K, 6800 kPa, x1 = 0.2995 | 1268.29
298.15 K, 7000 kPa, x1 = 0.6994 | 1883.78
298.15 K, 7900 kPa, x1 = 0.5013 | 1560
298.15 K, 8000 kPa, x1 = 0.2995 | 1269.58
298.15 K, 8100 kPa, x1 = 0.6994 | 1885.33
298.15 K, 8600 kPa, x1 = 0.5013 | 1561.02
298.15 K, 8900 kPa, x1 = 0.2995 | 1270.84
298.15 K, 9100 kPa, x1 = 0.6994 | 1887
298.15 K, 9800 kPa, x1 = 0.2995 | 1271.89
298.15 K, 10000 kPa, x1 = 0.5013 | 1562.92
298.15 K, 10000 kPa, x1 = 0.6994 | 1888.23
298.15 K, 10400 kPa, x1 = 0.6994 | 1888.73
298.15 K, 12000 kPa, x1 = 0.5013 | 1565.67
298.15 K, 12100 kPa, x1 = 0.2995 | 1274.55
298.15 K, 12300 kPa, x1 = 0.6994 | 1891.62
298.15 K, 13800 kPa, x1 = 0.5013 | 1568.24
298.15 K, 14000 kPa, x1 = 0.2995 | 1276.89
298.15 K, 14000 kPa, x1 = 0.6994 | 1894.37
298.15 K, 15800 kPa, x1 = 0.2995 | 1278.96
298.15 K, 15800 kPa, x1 = 0.5013 | 1570.87
298.15 K, 15900 kPa, x1 = 0.6994 | 1897.08
298.15 K, 17600 kPa, x1 = 0.5013 | 1573.34
298.15 K, 17800 kPa, x1 = 0.6994 | 1900.02
298.15 K, 17900 kPa, x1 = 0.2995 | 1281.5
298.15 K, 19800 kPa, x1 = 0.5013 | 1576.4
298.15 K, 19800 kPa, x1 = 0.6994 | 1903.09
298.15 K, 20100 kPa, x1 = 0.2995 | 1284.19
308.15 K, 101.33 kPa, x1 = 0.0522 | 940.97
308.15 K, 101.33 kPa, x1 = 0.2014 | 1118.5
308.15 K, 101.33 kPa, x1 = 0.3006 | 1245.98
308.15 K, 101.33 kPa, x1 = 0.4028 | 1385.7
308.15 K, 101.33 kPa, x1 = 0.4852 | 1505.67
308.15 K, 101.33 kPa, x1 = 0.6012 | 1686.98
308.15 K, 101.33 kPa, x1 = 0.7001 | 1854.24
308.15 K, 101.33 kPa, x1 = 0.8077 | 2050.67
308.15 K, 101.33 kPa, x1 = 0.8997 | 2234.29
308.15 K, 101.33 kPa, x1 = 1 | 2451.74
